Experimental data published in patent US8513417B2, “Method for synthesis of nitroxyl radical” (Kyushu University, National University Corporation, priority 2008, dated 2013).

What was measured:
[1] = Reactivity of nitroxyl radical to hydroxyl radical (UV/H2O2, X-band ESR); type: physicochemical; details: nitroxyl radical 25 μM, H2O2 10 mM, UV 100 to 120 mW/cm^2, X-band ESR
Method: In order to examine reactivities of the following 3 types of TEMPO-based nitroxyl radical derivatives, in which substituents at position-2 and position-6 in one derivative are different from those in another derivative, to free radical:
[drawing 49] according to the method of Takeshita et al. (Biochimica et Biophysica Acta, 1573, 156-164 (2002)), the following procedure was carried out. Nitroxyl radical (25 μM) was mixed with H2O2 (10 mM), and thereafter a specific amount of the mixture was collected in a capillary and irradiated with UV (100 to 120 mW/cm^2) to generate OH radical. The reactivities thereof to the nitroxyl radical were examined using X-band ESR.

[2] = Reactivity of nitroxyl radical to ascorbic acid (decrease in ESR signal intensity over time); type: physicochemical; details: nitroxyl radical 10 to 50 μM, ascorbic acid 100 μM to 2 mM, X-band ESR
Method: It has been reported that nitroxyl radical also reacts with a reduction substance (Couet, W. R., Tetrahedron, 41(7), 1165-1172 (1985); Finkelstein, E., Biochimica et Biophysica Acta, 802, 90-98 (1984)). Therefore, the following procedure was carried out. After nitroxyl radical (10 to 50 μM) was mixed with ascorbic acid (100 μM to 2 mM), a specific amount of the mixture was collected in a capillary, and thereafter the measurement was started. Using X-band ESR, decrease in ESR signal intensity was observed over time, thereby examining the reactivity to ascorbic acid, which is a typical reduction substance in the living body.

SMILES	reactivities to hydroxyl radical, rank order [1]	reactivities to ascorbic acid, rank order [2]	reactivity to ascorbic acid ([2]; FIG. 2)	melting point [°C]
[O]N1C2(CCOCC2)CC(=O)CC12CCOCC2 [Compound 3, 2,6-dispiro-1′,1″-dipyran-piperidone-1-oxyl]	Compound 1>Compound 3>Compound 2	Compound 3>Compound 2>Compound 1	very rapidly reacts with ascorbic acid	–
CC(C)(C)C1CC(=O)CC(C(C)(C)C)N1 (stereo not shown)	–	–	–	55.4
